Experiment [1] is described as follows: Cytotoxicity against human KATO III cells after 72 hrs by MTT assay. The class given is functional, cell-based. On the technique in general: Tetrazolium assays rely on reduction of a dye to a coloured formazan, in cell work by metabolically active cells.
The subject of experiment [2] is A549. Nature of the experiment: Cytotoxicity against human A549 cells after 48 hrs by MTT assay. Type of experiment: functional, cell-based.
The subject of experiment [3] is MCF7. Nature of the experiment: Cytotoxicity against human MCF7 cells after 48 hrs by MTT assay. The class given is functional, cell-based.
Experiment [4] relates to L02. Kind of experiment: Cytotoxicity against human L02 cells by MTS assay. The class given is cell-based.
The test system of experiment [5] is SH-SY5Y. Kind of experiment: Cytotoxicity against human SH-SY5Y cells by MTT assay. Type of experiment: functional, cell-based.
Experiment [6] concerns HepG2. Nature of the experiment: Cytotoxicity against human HepG2 cells by MTT assay. The class given is functional, cell-based.
The subject of experiment [7] is L5178Y. Kind of experiment: Cytotoxicity against mouse L5178Y cells by MTT assay. The class given is functional, cell-based.
Experiment [8] deals with A549. Nature of the experiment: Cytotoxicity against human A549 cells by MTT assay. Type of experiment: functional, cell-based.
Experiment [9] deals with HepG2. Nature of the experiment: Cytotoxicity against human HepG2 cells after 48 hrs by sulforhodamine B assay. The class given is functional, cell-based.
Experiment [10] deals with NCI-H460. Kind of experiment: Cytotoxicity against human NCI-H460 cells after 48 hrs by sulforhodamine B assay. Type of experiment: functional, cell-based. (In general: The SRB assay estimates cell density from bound dye.)
In experiment [11] the test system is MCF7. Nature of the experiment: Cytotoxicity against human MCF7 cells after 48 hrs by sulforhodamine B assay. The class given is functional, cell-based.
The subject of experiment [12] is SF-268. Kind of experiment: Cytotoxicity against human SF268 cells after 48 hrs by sulforhodamine B assay. Type of experiment: functional, cell-based.
Experiment [13] concerns MCF7. Kind of experiment: Cytotoxicity against human MCF7 cells by MTT assay. Type of experiment: functional, cell-based.
Experiment [14] concerns PC-3. Nature of the experiment: Cytotoxicity against human PC3 cells after 48 hrs by MTT assay. Type of experiment: functional, cell-based. The note with it: PC-3, 48 h.
The subject of experiment [15] is SH-SY5Y. Kind of experiment: Cytotoxicity against human SH-SY5Y cells after 48 hrs by MTT assay. The class given is functional, cell-based.
The test system of experiment [16] is NB-4. Kind of experiment: Cytotoxicity against human NB4 cells after 48 hrs by MTT assay. Type of experiment: functional, cell-based. The following applies: NB-4, 48 h.
The test system of experiment [17] is HepG2. Kind of experiment: Cytotoxicity against human HepG2 cells after 72 hrs by MTT assay. Type of experiment: functional, cell-based. The following applies: HepG2, 72 h.
Experiment [18] relates to A549. Kind of experiment: Cytotoxicity against human A549 cells after 72 hrs by MTT assay. The class given is functional, cell-based. The note with it: A549, 72 h.
The mark [19] stands for this setting: Homo sapiens, MCF7, 48 h, read-out: IC50.

In [1], `COC(=O)[C@@H](C[C@@H](OC)c1c(OC)cc(O)c2c(=O)cc(C)oc12)OC` had an IC50 of 21.4 µM.
For `CC(=O)OCC1=C[C@@H]2[C@H](CCO)[C@@]1(C)CCCC2(C)C`, the results for the IC50 in experiment [2] (a549) and in experiment [3] (mcf7) were 33.2 µM and 19.1 µM, respectively.
For the compound `COC(=O)[C@]1(Cc2ccc(O)c(CC=C(C)C)c2)OC(=O)C(O)=C1c1ccc(OC)cc1`, the IC50 in experiment [4], in [5] and in experiment [6] was less than 10 µM throughout.
`C[C@H]1[C@@H](O)CCC(C)(C)[C@@]12CC=C(C(=O)O)CC2`: in [1], 25.3 µM corresponded to half-maximal inhibition (IC50).
As to `COC(=O)[C@]1(Cc2ccc(OC)c(CC=C(C)C)c2)OC(=O)C(O)=C1c1ccccc1`, the IC50 in experiment [4], in experiment [5] and in experiment [6] was less than 10 µM throughout.
In experiment [7], `COc1cc(O)c2c(c1-c1c(OC)cc(O)c3c1C(=O)C1=C(C3=O)[C@H](O)[C@@H](OC(C)=O)[C@@](C)(O)[C@@H]1O)C(=O)C1=C(C2=O)[C@H](O)[C@@H](O)[C@@](C)(O)[C@@H]1O` returned an IC50 of 10.4 µM.
As to `COc1cc(OC)c2c(c1CC=C(C)C)C[C@@H](C)OC2=O`, the values for the IC50 in [5] and in experiment [6] were 8.5 µM and 9.4 µM, respectively.
As to `COC(=O)[C@]1(Cc2ccc(O)c(CC=C(C)C)c2)OC(=O)C(O)=C1c1ccccc1`, the IC50 in [4], in experiment [5] and in [6] was less than 10 µM in each case.
In turn, `COc1cc(O)c2c(=O)c3c(O)ccc(C(CO)C(O)CO)c3oc2c1O` (stereo not given) had a half-inhibitory concentration (IC50) in experiment [8] of 3.6 µM.
In the case of `COc1ccc(C(CO)C(O)CO)c2oc3c(O)c(O)cc(O)c3c(=O)c12` (stereo not given), the IC50 in experiment [5] came out at 4.2 µM.
Regarding `COC(=O)c1cccc2oc3cc(C)cc(O[C@@H]4O[C@H](CO)[C@@H](O)[C@H](O)[C@H]4O)c3c(=O)c12`, in experiment [4], the midpoint of inhibition, the IC50, lay at 6.8 µg/mL.
As to `COc1c(O)cc2c(c1CC=C(C)C)C=C(C)OC2`, the IC50 in [8] stood at 9.4 µM; in [6] it was 8.8 µM.
As for `COc1cc(O)c2c(c1)C(=O)[C@@H]1[C@H](C[C@@H](O)[C@@](C)(O)[C@@H]1O)C2=O`, in experiment [7], the IC50 is 3.4 µM.
For `CC[C@H](C)C(=O)[C@@H](C)C1=CC(=O)C2=C(O[C@]3(C)CC[C@H]4O[C@@H](C(C)(C)O)CC[C@]4(C)C3=C2)C1=O`, the IC50 in [9] (Homo sapiens, HepG2, 48 h) was 6.4 to 42.6 µM; in [10] (Homo sapiens, NCI-H460, 48 h), 6.4 to 42.6 µM; in experiment [11] (Homo sapiens, MCF7, 48 h), 6.4 to 42.6 µM; in experiment [12] (Homo sapiens, SF-268, 48 h), 6.4 to 42.6 µM.
As to `CS[C@@]1(CO)C(=O)N(C)[C@@](Cc2cn([C@@]34C[C@@]5(SC)C(=O)N(C)[C@](CO)(SC)C(=O)N5[C@]3(C)Nc3ccccc34)c3ccccc23)(SC)C(=O)N1C`, in experiment [3] (setting [19]), the IC50 stood at 8.3 µg/mL.
For the compound `C[C@@H]1CC2=C(CO1)C(=O)[C@@](C)(O)[C@@H](O)C2`, the half-maximal inhibitory concentration (IC50) came to 41.9 µM in experiment [8] and 2.5 µM in [13].
Regarding `C/C1=C\C(=O)OC[C@]23CCC(C(=O)O)=C[C@H]2O[C@@H]2CC(OC(=O)/C=C\C=C\[C@H]([C@H](C)O)OCC1)[C@@]3(C)[C@]21CO1` (stereo not given in full), the IC50 in [9] (hepg2) stood at 0.38 µM; in [10] (nci-h460), 0.36 µM; in [11] (mcf7), 0.17 µM; in [12] (sf-268), 0.751 µM.
Regarding `COc1ccc2c(c1C/C=C(\C)CO)C=C(CO)OC2`, the IC50 lay in the range of 2.8 to 8.8 µM in experiment [14]; 2.8 to 8.8 µM in [15]; 2.8 to 8.8 µM in [16]; 2.8 to 8.8 µM in [2] (Homo sapiens, A549, 48 h, read-out: IC50); 2.8 to 8.8 µM in experiment [3] (setting [19]).
Regarding `COc1ccc2c(c1CC=C(C)C)C=C(C)OC2`, the IC50 in [5] was determined as 6.8 µM; in [6] it was 8.2 µM.
For the compound `CC[C@H](C)C(=O)[C@@H](C)c1c(O)c2c(c3c1SCC(=O)N3)[C@@H](O)[C@@H]1[C@@]3(C)CC[C@H](C(C)(C)O)O[C@@H]3CC[C@@]1(C)O2`, the half-maximal inhibitory concentration (IC50) in experiment [9] (Homo sapiens, HepG2, 48 h) fell in the range of 6.4 to 42.6 µM; in experiment [10] (Homo sapiens, NCI-H460, 48 h) it was 6.4 to 42.6 µM; in experiment [11] (Homo sapiens, MCF7, 48 h), 6.4 to 42.6 µM; in experiment [12] (Homo sapiens, SF-268, 48 h), 6.4 to 42.6 µM.
For `CC1=C2C(=C[C@H](O)C(O)=C2O)[C@H](C)[C@@H](C)O1`, the figures for the half-maximal inhibitory concentration (IC50) in experiment [17] and in experiment [18] were 35.7 µM and 23.7 µM, respectively.
Take `COC(=O)[C@]1(Cc2ccc(OC)c(CC=C(C)C)c2O)OC(=O)C(O)=C1c1ccc(O)cc1`: the IC50 in experiment [4] is 3.9 µM; in experiment [6], 4.8 µM.
In experiment [6], `CCCCC[C@@H]1CC[C@H](C)CCCCC(=O)N[C@@H](Cc2ccc(OCC=C(C)C)cc2)C(=O)O1` displayed an IC50 of 36.6 µM.
The compound `COc1cc(C)c2c(c1)oc(=O)c1c(O)cc(O[C@@H]3O[C@H](CO)[C@H](O)[C@H](O)[C@H]3O)cc12` had an IC50 in [4] of 7.2 µg/mL.

What is called IC50 is the concentration needed to halve the response being measured.

The record behind these values is ChEMBL document CHEMBL4411258, “Novel natural compounds from endophytic fungi with anticancer activity” (Eur J Med Chem, 2018).
